Calls of active or inactive are those of the source. The rule behind the calls is not given here.
Tests used:
[1] = Antioxidant activity assessed as DPPH radical scavenging activity after 30 mins under dark condition by spectrophotometric analysis; format: functional
[2] = Acute toxicity in ip dosed Swiss albino mouse measured after 24 hrs; format: organism-based; conditions: in vivo
[3] = test system: Mus musculus; experiment: (§1) Hepatoprotective activity in ip dosed Swiss albino mouse assessed as serum ALT level at 1/10 x LD50 treated at 2 hrs prior to 5 Gy gamma irradiation exposure on 1st day followed by compound treatment for next 2 days and measured at 24 hrs post last dose; format: functional, organism-based; conditions: time 3.0 day
[4] = test system: Mus musculus; experiment: Hepatoprotective activity in ip dosed Swiss albino mouse assessed as serum AST level at 1/10 x LD50 treated at 2 hrs prior to 5 Gy gamma irradiation exposure on 1st day followed by compound treatment for next 2 days and measured at 24 hrs post last dose; format: functional, organism-based; conditions: time 3.0 day
[5] = test system: Mus musculus; experiment: (§2) Radioprotective activity in ip dosed Swiss albino mouse assessed as reduction in gamma-irradiation-induced decline in serum albumin level at 1/10 x LD50 treated at 2 hrs prior to 5 Gy gamma irradiation exposure on 1st day followed by compound treatment for next 2 days and measured at 24 hrs post last dose; format: functional, organism-based; conditions: time 3.0 day
[6] = test system: Mus musculus; experiment: as §1, with “Antioxidant” for “Hepatoprotective”, “reduction in gamma irradiation-induced hepatic oxidative stress by measuring reduction in MDA” for “serum ALT”, “level in liver” for “level”; format: functional; conditions: time 3 day
[7] = test system: Mus musculus; experiment: as §1, with “Antioxidant” for “Hepatoprotective”, “reduction in gamma irradiation-induced hepatic oxidative stress by measuring reduction in ROS” for “serum ALT”, “level in liver” for “level”; format: functional; conditions: time 3 day
[8] = test system: Mus musculus; experiment: as §1, with “Antioxidant” for “Hepatoprotective”, “reduction in gamma irradiation-induced hepatic oxidative stress by measuring increase in SOD activity in liver” for “serum ALT level”; format: functional; set-up: scale not given: the % may be the effect or the level left; conditions: time 3 day
[9] = test system: Mus musculus; experiment: as §1, with “Antioxidant” for “Hepatoprotective”, “reduction in gamma irradiation-induced hepatic oxidative stress by measuring increase in Zn2+ concentration in liver” for “serum ALT level”; format: functional; set-up: scale not given: the % may be the effect or the level left; conditions: time 3 day
[10] = test system: Mus musculus; experiment: as §2, with “gamma irradiation-induced decrease” for “gamma-irradiation-induced decline”, “PON1 activity by measuring increase in PON1 activity in liver” for “serum albumin level”; format: functional; set-up: scale not given: the % may be the effect or the level left; conditions: time 3 day
[11] = test system: Mus musculus; experiment: Radioprotective activity in ip dosed Swiss albino mouse assessed as reduction in gamma irradiation-induced increase in NF-kappaB activity by measuring decrease in NFkappaB activity in liver at 1/10 x LD50 treated at 2 hrs prior to 5 Gy gamma irradiation exposure on 1st day followed by compound treatment for next 2 days and measured at 24 hrs post last dose by ELISA; format: functional; conditions: time 3 day

| SMILES | IC50 [1] [µM] | also measured |
| --- | --- | --- |
| CCOC(=O)c1ccccc1NC(=O)CSc1nc2ccccc2c(=O)n1-c1ccc(S(N)(=O)=O)cc1 | 89.5 |  |
| NS(=O)(=O)c1ccc(-n2c(SCC(=O)NC3CCN(Cc4ccccc4)CC3)nc3ccccc3c2=O)cc1 | 104 |  |
| O=C1O[C@H]([C@@H](O)CO)C(O)=C1O [ASCORBIC ACID] | 132 |  |
| CCOC(=O)c1cccc(NC(=O)CSc2nc3ccccc3c(=O)n2-c2ccc(S(N)(=O)=O)cc2)c1 | 65.7 |  |
| NS(=O)(=O)c1ccc(-n2c(SCC(=O)Nc3cnccn3)nc3ccccc3c2=O)cc1 | 45.8 | LD50 at 24 h [2]: 200 mg/kg; Activity [3]: inactive; Activity [4]: inactive; Activity [5]: Active; inhibition (INH) [6]: 49%; inhibition (INH) [7]: 30.6%; Activity [8]: 157%; Activity [9]: 39.4%; Activity [10]: 104.8%; inhibition (INH) [11]: 45.6% |
| CN1C(=O)c2ccc(NC(=O)CSc3nc4ccccc4c(=O)n3-c3ccc(S(N)(=O)=O)cc3)cc2C1=O | 48.5 |  |
| CCOc1ccc2nc(NC(=O)CSc3nc4ccccc4c(=O)n3-c3ccc(S(N)(=O)=O)cc3)sc2c1 | 50.5 |  |
| Cn1c(NC(=O)CSc2nc3ccccc3c(=O)n2-c2ccc(S(N)(=O)=O)cc2)cc(=O)n(C)c1=O | 56.4 |  |
| NS(=O)(=O)c1ccc(-n2c(SCC(=O)Nc3nccs3)nc3ccccc3c2=O)cc1 | 125 |  |
| NS(=O)(=O)c1ccc(-n2c(SCC(=O)Nc3c[nH]c(=O)[nH]c3=O)nc3ccccc3c2=O)cc1 | 54.4 |  |
| NS(=O)(=O)c1ccc(-n2c(SCC(=O)NN3CCOCC3)nc3ccccc3c2=O)cc1 | 66.4 |  |
| Cc1cc(NC(=O)CSc2nc3ccccc3c(=O)n2-c2ccc(S(N)(=O)=O)cc2)no1 | 82.4 |  |
| NS(=O)(=O)c1ccc(-n2c(SCC(=O)NCCN3CCOCC3)nc3ccccc3c2=O)cc1 | 69.8 |  |
| CCOC(=O)N1CCC(NC(=O)CSc2nc3ccccc3c(=O)n2-c2ccc(S(N)(=O)=O)cc2)CC1 | 108 |  |
| NS(=O)(=O)c1ccc(-n2c(SCC(=O)Nc3nc4ccc([N+](=O)[O-])cc4s3)nc3ccccc3c2=O)cc1 | 94.8 |  |
| NS(=O)(=O)c1ccc(-n2c(SCC(=O)Nc3nnc(C(F)(F)F)s3)nc3ccccc3c2=O)cc1 | 107 |  |
